For 88 compounds, melting point results are on record in a melting point compilation (Tetko et al.; mined from patent text by program, amines drawn as free bases though some values may be those of a salt).

For orientation: melting point means the temperature of the solid-liquid transition.

Where only a bound is given, the exact number is not on record here.

On to `CN1CC(CNC(=N)NC(=O)c2ccccc2)CC2c3cccc4[nH]cc(c34)CC21` (stereo not drawn), for which the melting point is 190 to 191 °C.

Consider `N=c1[nH]ccn1Cc1ccc(Cl)nc1`, for which the melting point stood at 188 °C.

Compound `COc1ccc(C2(C#Cc3ccccn3)CCC3(CC2)OCCO3)cc1OC1CCCC1` registered a melting point of 41 to 42 °C.

On to `CN1CC2CC2(C(=O)O)C1` (stereo not drawn), for which the melting point was in the range of 193 to 195 °C.

Regarding `Nc1c(N=O)c(=O)n(CC2CC2)c(=O)n1CC1CC1`, the melting point fell in the range of 228 to 229 °C.

Regarding `CC1(C)C(=O)Nc2ccc(C3=NNC(=O)CC3)cc21`, the melting point was above 300 °C.

The compound `NC1=NS(=O)N=C1NCCCN(Cc1cccc(F)c1)c1ccccn1` (stereo not drawn) showed a melting point of 160 to 162 °C.

In turn, `CCOC(=O)c1cc2ccnc(Cl)c2[nH]1` registered a melting point of 152 to 157 °C.

The compound `CC1(C)Oc2cc(Br)sc2C(N2CCCCC2=O)C1O` (stereo not drawn) gave a melting point of 200 to 202 °C.

Compound `C(#Cc1cnc(-c2cccs2)s1)c1ccccc1` came in with a melting point of 94 to 96 °C.

Consider `CC(=O)Nc1nc(CCc2ccc(N)cc2)c(C(=O)O)s1`, for which the melting point amounted to 212 °C.

Compound `CCc1csc(Cc2ccc(NC(=O)/C=C/c3cnn(C)c3-c3ccc(F)cc3)cc2)n1` had a melting point of 211 to 212 °C.

Take `C=CCOC(=O)Nc1sc(-c2cccc(Cl)c2)cc1C(=O)OC`: the melting point lay within 149 to 150 °C.

Regarding `COCCOc1cc(NC(=O)OC(C)(C)C)c(NC(=O)CC(=O)c2cccc(-n3ccnc3)c2)cc1C#Cc1ccccc1`, the melting point was 122 to 129 °C.

`C#CC1(Oc2ccc(F)cc2[N+](=O)[O-])CCN(C(=O)OCC)CC1` gave a melting point of 56 to 68 °C.

The compound `Cc1cc2c(-c3ccccc3)noc2c2c1OC(C(=O)O)C2` (stereo not drawn) registered a melting point of 210 to 213 °C.

`CC(C)N[C@@H](Cc1ccccc1)C(=O)N1CCN(C(c2ccc(F)cc2)c2ccc(F)cc2)CC1`: the melting point lay within 45 to 58 °C.

Regarding `COc1nc(-c2ccc(=O)n(C(C)C)n2)c(-c2ccccc2)nc1N`, the melting point fell in the range of 211 to 214 °C.

In turn, `CC(C)(O)c1cccc(-c2ccc3nc(-c4ccc(Cl)cc4)cn3c2)c1` displayed a melting point of 166 to 168 °C.

In turn, `COc1cc(Nc2nccc(Nc3cccc(CCO)c3)n2)cc(OC)c1OC` showed a melting point of 72 °C.

Compound `CC(C)c1cc(S(N)(=O)=O)c(C(C)C)cc1C(=O)O` came in with a melting point of 225 to 231 °C.

The compound `Cc1nc2cc(NC(=O)Nc3cccc(C(F)(F)F)c3)ccc2o1` came in with a melting point of 184 to 186 °C.

In the case of `CC(C)(C)c1cc(Br)c(C(C)(C)C)cc1N`, the melting point lay within 89 to 90 °C.

Take `CN1Cc2cc3ccc4c(c3c(-c3ccc5c(c3)OCO5)c2C1=O)OCO4`: the melting point is 242 to 244 °C.

`O=C(OC(c1ccccc1)c1ccccc1)C(=C(CBr)N1CCOCC1)N1C(=O)C2N=C(Cc3ccccc3)SC21` (stereo not drawn) gave a melting point of 93 to 96 °C.

`CC(C)Oc1ccc(-c2nn(C(C)c3oc4cccc(F)c4c(=O)c3-c3cccc(F)c3)c3ncnc(N)c23)cc1F` (stereo not drawn) had a melting point of 228 to 230 °C.

In turn, `COC(=O)CC[C@@H](CF)NC(=O)c1ccccc1` displayed a melting point of 99.5 to 100 °C.

`Fc1ccc(-c2nccc(Oc3cccc(C(F)(F)F)c3)n2)cc1` showed a melting point of 52 °C.

In turn, `CCCCCCCCCCCCCc1c(C(=O)O)sc2c(Br)csc12` registered a melting point of 88 to 90 °C.

As to `COc1cc2ncc(C#N)c(Nc3ccc(C)c(Cl)c3)c2cc1OC`, the melting point is above 250 °C.

In the case of `CCc1nc2c(cnn2CC)c(NC2CCOCC2)c1CNC(=O)c1cccc(C(=O)NCc2ccc(C)c(-c3cccc(CN4CC5CC4CN5)c3)c2)c1` (stereo not drawn), the melting point is 138 to 140 °C.

`CC(C)(C)C(=O)CC(c1ccc(Cl)cc1)S(=O)(=O)c1ccccc1` (stereo not drawn) came in with a melting point of 145 to 146 °C.

For `CSc1ncnc(SC)c1NC(=O)CN1CCN(CCSc2nc3ccccc3o2)CC1`, the melting point is 171 to 172 °C.

`Cc1ccc(C)c2c(=O)oc(=O)[nH]c12` came in with a melting point of 295 to 298 °C.

For the compound `Cc1c(-c2ccnc(C(F)(F)F)c2)sc2nc(N)[nH]c(=O)c12`, the melting point was 335 to 355 °C.

Turning to `COc1cc2c(c(OC)c1OC)-c1ccc(SC)c(=O)cc1C(N)CC2` (stereo not drawn), the melting point was in the range of 168 to 170 °C.

Consider `Cc1cc(Nc2cc(-c3cnc4cc[nH]c4c3)cn3ccnc23)nn1CCO`, for which the melting point lay within 127 to 130 °C.

Consider `CSc1c(F)cc(CC(=O)c2ccccc2)cc1F`, for which the melting point lay within 71.8 to 71.9 °C.

Regarding `Nc1ccc2c(c1)c1ccccc1n2CCC(=O)NCCO`, the melting point fell in the range of 217 to 218 °C.

Take `COc1ccc(C(=O)Nc2cc(C(F)(F)F)c(Br)cc2S(N)(=O)=O)cc1`: the melting point was 321 °C.

Consider `CNC(=S)C1=CC2(CCOCC2)Oc2ccc([N+](=O)[O-])cc21`, for which the melting point was 223 to 225 °C.

As for `COC(=O)c1c(Cl)ccc(C(=O)O)c1Cl`, the melting point fell in the range of 183 to 185 °C.

`COc1ccc(CCc2ccccc2C2(OC)C=CC(C(N)=O)=C(O)C2)cc1OC` (stereo not drawn) returned a melting point of 146 to 148 °C.

In turn, `COC(=O)c1c(OC)cc(C=O)cc1OC` displayed a melting point of 113 to 114 °C.

`COc1ccccc1CN[C@H]1CCCN[C@H]1c1ccoc1` (relative stereo) came in with a melting point above 247 °C.

Consider `CCOC(=O)c1cnc2cn[nH]c2c1Sc1ccccc1`, for which the melting point lay in the range of 130 to 131 °C.

Consider `Cc1ccc(S(=O)(=O)CCOc2ccccc2OCCS(=O)(=O)c2ccc(C)cc2)cc1`, for which the melting point lay in the range of 95 to 96 °C.

On to `CCOC(=O)c1cc(=O)c2cc(OCC(O)COc3ccc(C#N)cc3)ccc2o1` (stereo not drawn), for which the melting point was 150 to 152 °C.

`C[C@H](c1ccccc1)n1c(=O)[nH]c2cc(Cl)cc(Cl)c2c1=O` yielded a melting point of 205 to 210 °C.

Take `CC(C)CNc1c2c(nc3cn[nH]c13)CCCC2`: the melting point lay in the range of 124 to 127 °C.

Compound `NC(=O)CCN1CCC(C(O)(c2ccc(F)cc2)c2ccc(F)cc2)CC1` had a melting point of 136 to 137 °C.

Turning to `Cc1ncccc1Oc1ccc(NC(=O)NCCc2ccccc2)cn1`, the melting point fell in the range of 136 to 138 °C.

For the compound `O=C1CCCN1c1nc(-n2ccnc2)c(I)c(C(F)(F)F)n1`, the melting point was 195 to 197 °C.

As to `O=C(O)[C@H](Cc1cncn1COCc1ccccc1)NS(=O)(=O)CCc1ccccc1`, the melting point lay in the range of 223 to 233 °C.

With `CS(=O)(=O)c1ccc(-n2nc(CCCNC(=O)Nc3cccc(C(F)(F)F)c3)cc2-c2ccccc2)cc1`, the melting point is 150 to 152 °C.

For the compound `CCCc1c(OCCCCCC(=O)NC(C)CCCc2cccnc2)ccc(C(C)=O)c1O` (stereo not drawn), the melting point lay within 63 to 66 °C.

With `Cn1cc(C(=O)Nc2ccccc2OC(F)(F)C(F)F)c(C(F)F)n1`, the melting point lay within 117 to 119 °C.

Compound `CS(=O)c1nnc2n1C=Cc1ccccc1C2` (stereo not drawn) displayed a melting point of 176 to 177 °C.

Take `C[C@H](CO)Nc1nc(SCc2ccccc2F)nc2[nH]c(=O)cnc12`: the melting point lay in the range of 203 to 205 °C.

`CC(C)(C)OC(=O)N1CCC(n2nnc(-c3cnc(-c4ccccc4)nc3)n2)CC1`: the melting point was 178 to 180 °C.

Take `CCc1ccc(OCc2cccc(NC(=O)CCC(=O)OC)c2)cc1OC`: the melting point lay within 69 to 70 °C.

For `CCNC(=O)C(c1ccccc1)N1CCN(c2ccc(NC(=O)c3ccccc3-c3ccc(C(F)(F)F)cc3)cc2)CC1` (stereo not drawn), the melting point amounted to 123 °C.

On to `N#CCSc1nc2cc(Cl)ccc2s1`, for which the melting point fell in the range of 96 to 97 °C.

For `COc1ccc(C2CC3(C)C(=O)CCC3C3CCC4=CC(=O)CCC4C23)cc1` (stereo not drawn), the melting point fell in the range of 155 to 156 °C.

`Fc1c(Cl)cc(Br)c2ccccc12` displayed a melting point of 48 to 51 °C.

`CCN(C(C)=O)c1cccc(-c2ccc3nnc(C)n3n2)c1` yielded a melting point of 180 to 185 °C.

`CCCN(Cc1ccc(-c2ccccc2-c2nc(=O)s[nH]2)cc1)c1nc2ccccc2cc1C(=O)OCC` had a melting point of 124 to 125 °C.

`COC[C@@H](N)C(=O)N(O)C(=O)OC(C)(C)C` showed a melting point of 83 to 85 °C.

`COC(=O)C1CC2=C(CO1)C(=O)c1cc3ccccc3c(OC(C)=O)c1C2=O` (stereo not drawn) showed a melting point of 196 to 198 °C.

In the case of `N#Cc1c[nH]nc1-c1ccc([N+](=O)[O-])o1`, the melting point is 238 to 239 °C.

For `Cn1c(SCc2ccccc2)nc2cnc3ccccc3c21`, the melting point lay in the range of 160 to 163 °C.

Compound `N=C(Cc1ccc(F)cc1)Nc1ncccc1OCc1ccccc1` yielded a melting point of 86 to 93 °C.

In turn, `CCNn1cc(C(=O)O)c(=O)c2cc(F)c(N3CCNCC3)cc21` came in with a melting point of 289 to 291 °C.

In the case of `CC(=O)c1cc(-c2ccc(C)cc2)c(OCc2ccccc2)c(C(C)(C)C)c1`, the melting point worked out at 104 °C.

Compound `CCOC(=O)C1=C(COCC(N)=O)NC(C)=C(C(=O)OC)C1c1ccccc1Cl` (stereo not drawn) gave a melting point of 127 to 128 °C.

Regarding `COc1ccc2c(c1)C13CCN(C)C(C2)C1OC(C)(C)OC3` (stereo not drawn), the melting point was 132 to 133 °C.

In turn, `O=C(CCN1CCNCC1)Nc1ccc2c(c1)C(=O)c1cc(NC(=O)CCN3CCNCC3)ccc1C2=O` had a melting point of 218 °C.

`Nc1nc(Cl)c2ncn(C3C=CC(O)C3)c2n1` (stereo not drawn): the melting point is 160 to 162 °C.

For the compound `COC(=O)c1cc(C)cc(CC#N)c1`, the melting point is 56.2 to 57.8 °C.

In turn, `CCOC(=O)N1CCC(=C2c3ccc(Cl)cc3CCn3ccnc32)CC1` registered a melting point of 140 °C.

In turn, `CC(C)CNC(=O)NCCCl` came in with a melting point of 79.5 °C.

Consider `COc1ccc(CSc2ccc(OCC(=O)O)c3c2CCC3)cc1OCc1ccc(C(F)(F)F)cc1`, for which the melting point was 150 to 151 °C.

Turning to `Fc1cccc(NC2CN([C@H]3CC[C@@H](c4c[nH]c5ccc(F)cc54)CC3)C2)c1`, the melting point is 67 to 70 °C.

Turning to `COc1ccc(-c2cc(COS(C)(=O)=O)c(=O)n(CC=Cc3ccc(Cl)cc3)n2)cc1F`, the melting point turned out to be 136 °C.

The compound `COc1cn(-c2ccc(N3CCN(C(C)(C)C)C3=O)cc2F)nc(-c2ccnn2-c2ccccc2)c1=O` registered a melting point of 238 to 239 °C.

Consider `COc1cc(Cl)cc(C)c1Nc1nc2c(Cl)ccc(C(=O)C(C)(C)C)c2n1C`, for which the melting point fell in the range of 249 to 250 °C.

Take `O=C(NCCO[N+](=O)[O-])c1csc(C(F)(F)F)n1`: the melting point was in the range of 81 to 82 °C.

As for `C=C1CN(c2c(F)cc3c(=O)c(C(=O)O)cn(C4CC4)c3c2F)CC1NC` (stereo not drawn), the melting point lay in the range of 239 to 243 °C.
